Laboratory results reported in patent US12466822B2, “Heterocyclic compounds as immunomodulators” (Incyte Corporation, priority 2016, dated 2025).
pIC50: −log10 of the molar value.

Biological target: T1, PD-1/PD-L1 protein/protein interaction (recombinant human PD-L1 protein (19-238), recombinant human PD-1 protein (25-167)) (Homo sapiens, UniProt Q9NZQ7)
T1 construct: Recombinant human PD-L1 protein (19-238) with a His-tag at the C-terminus; purchased AcroBiosystems PD1-H5229 (PD-L1-His); PD1-H5257 (PD-1-Fc)
T1 sequence (Q9NZQ7 19-238): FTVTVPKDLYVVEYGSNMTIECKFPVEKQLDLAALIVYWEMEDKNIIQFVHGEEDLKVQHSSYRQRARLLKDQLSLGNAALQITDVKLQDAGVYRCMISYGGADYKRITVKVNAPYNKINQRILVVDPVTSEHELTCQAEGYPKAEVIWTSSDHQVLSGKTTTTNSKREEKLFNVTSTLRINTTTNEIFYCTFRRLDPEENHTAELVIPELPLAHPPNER
Assay: PD-1/PD-L1 Homogeneous Time-Resolved Fluorescence (HTRF) Binding Assay
Conditions: 25° C., PBS buffer (pH 7.4), 40 minutes preincubation with inhibitors
Method: The assays were conducted in a standard black 384-well polystyrene plate with a final volume of 20 μL. Inhibitors were first serially diluted in DMSO and then added to the plate wells before the addition of other reaction components. The final concentration of DMSO in the assay was 1%. The assays were carried out at 25° C. in the PBS buffer (pH 7.4) with 0.05% Tween-20 and 0.1% BSA. Recombinant human PD-L1 protein (19-238) with a His-tag at the C-terminus was purchased from AcroBiosystems (PD1-H5229). Recombinant human PD-1 protein (25-167) with Fc tag at the C-terminus was also purchased from AcroBiosystems (PD1-H5257). PD-L1 and PD-1 proteins were diluted in the assay buffer and 10 μL was added to the plate well. Plates were centrifuged and proteins were preincubated with inhibitors for 40 minutes. The incubation was followed by the addition of 10 μL of HTRF detection buffer supplemented with Europium cryptate-labeled anti-human IgG (PerkinElmer-AD0212) specific for Fc and anti-His antibody conjugated to SureLight®-Allophycocyanin (APC, PerkinElmer-AD0059H). After centrifugation, the plate was incubated at 25° C. for 60 min. before reading on a PHERAstar FS plate reader (665 nm/620 nm ratio). Final concentrations in the assay were […], 10 nM PD-L1, 1 nM europium anti-human IgG and 20 nM anti-His-Allophycocyanin. IC50 determination was performed by fitting the curve of percent control activity versus the log of the inhibitor concentration using the GraphPad Prism 5.0 software.

Row | Structure (SMILES) | pIC50
1 | Cc1c(Nc2nccc3cc(CN4CC[C@@H](O)C4)cnc23)cccc1-c1cccc(NC(=O)c2nc3c(n2C)CCN(C[C@H]2CC[C@H](C(=O)O)CC2)C3)c1Cl [Example 47, trans-4-((2-(2-chloro-3′-(3-(((R)-3-hydroxypyrrolidin-1-yl)methyl)-1,7-naphthyridin-8-ylamino)-2′-methylbiphenyl-3-ylcarbamoyl)-1-methyl-6,7-dihydro-1H-imidazo[4,5-c]pyridin-5(4H)-yl)methyl)cyclohexanecarboxylic acid] | ≥ 8.00
2 | Cc1c(Nc2nccc3cc(CN4CC[C@H](O)C4)cnc23)cccc1-c1cccc(-c2nc3c(o2)CN(C(=O)CN(C)C)C3)c1C [Example 38, (S)-2-(dimethylamino)-1-(2-(3′-((3-((3-hydroxypyrrolidin-1-yl)methyl)-1,7-naphthyridin-8-yl)amino)-2,2′-dimethyl-[1,1′-biphenyl]-3-yl)-4,6-dihydro-5H-pyrrolo[3,4-d]oxazol-5-yl)ethan-1-one] | ≥ 8.00
3 | Cc1c(Nc2nccc3cc(CNCCO)cnc23)cccc1-c1cccc(NC(=O)c2ccc(CN3CCCC[C@H]3C(=O)O)cn2)c1F [Example 3, (S)-1-((6-((2-fluoro-3′-((3-(((2-hydroxyethyl)amino)methyl)-1,7-naphthyridin-8-yl)amino)-2′-methyl-[1,1′-biphenyl]-3-yl)carbamoyl)pyridin-3-yl)methyl)piperidine-2-carboxylic acid] | ≥ 8.00
4 | C[C@@]1(O)CCN(Cc2cnc3c(Nc4cccc(-c5cccc(Nc6nccc7cc(CN8CC[C@@H](O)C8)cnc67)c5Cl)c4Cl)nccc3c2)C1 [Example 76, (R)-1-((8-((2,2′-dichloro-3′-((3-(((R)-3-hydroxypyrrolidin-1-yl)methyl)-1,7-naphthyridin-8-yl)amino)-[1,1′-biphenyl]-3-yl)amino)-1,7-naphthyridin-3-yl)methyl)-3-methylpyrrolidin-3-ol] | ≥ 8.00
5 | Cc1c(Nc2nccc3cc(CN4CC[C@H](O)C4)cnc23)cccc1-c1cccc(Nc2nccc3cc(CN4CC[C@@H](O)C4)cnc23)c1Cl [Example 74, (S)-1-((8-((2′-chloro-3′-((3-(((R)-3-hydroxypyrrolidin-1-yl)methyl)-1,7-naphthyridin-8-yl)amino)-2-methyl-[1,1′-biphenyl]-3-yl)amino)-1,7-naphthyridin-3-yl)methyl)pyrrolidin-3-ol] | ≥ 8.00
6 | Cc1c(Nc2nccc3cc(CN4CC[C@H](O)C4)cnc23)cccc1-c1cccc(NC(=O)c2nc3c(n2C)CCN(C)C3)c1Cl [Example 32, (S)—N-(2-chloro-3′-(3-((3-hydroxypyrrolidin-1-yl)methyl)-1,7-naphthyridin-8-ylamino)-2′-methylbiphenyl-3-yl)-1,5-dimethyl-4,5,6,7-tetrahydro-1H-imidazo[4,5-c]pyridine-2-carboxamide] | ≥ 8.00
7 | Cc1c(-c2nc3c(s2)CN(C(=O)CN(C)C)C3)cccc1-c1cccc(Nc2nccc3cc(CN4CC[C@@H](C(=O)O)C4)cnc23)c1Cl [Example 89, (R)-1-((8-((2-chloro-3′-(5-(dimethylglycyl)-5,6-dihydro-4H-pyrrolo[3,4-d]thiazol-2-yl)-2′-methyl-[1,1′-biphenyl]-3-yl)amino)-1,7-naphthyridin-3-yl)methyl)pyrrolidine-3-carboxylic acid] | ≥ 8.00
8 | Cc1c(Nc2nccc3cc(CN4CCCC4)cnc23)cccc1-c1cccc(Nc2nccc3cc(CN4CC[C@@H](O)C4)cnc23)c1C [Example 73, (R)-1-((8-((2,2′-dimethyl-3′-((3-(pyrrolidin-1-ylmethyl)-1,7-naphthyridin-8-yl)amino)-[1,1′-biphenyl]-3-yl)amino)-1,7-naphthyridin-3-yl)methyl)pyrrolidin-3-ol] | ≥ 8.00
9 | O=C(O)[C@@H]1CCN(Cc2cnc3c(Nc4cccc(-c5cccc(Nc6nccc7cc(CN8CC[C@@H](O)C8)cnc67)c5Cl)c4Cl)nccc3c2)C1 [Example 78, (R)-1-((8-((2,2′-dichloro-3′-((3-(((R)-3-hydroxypyrrolidin-1-yl)methyl)-1,7-naphthyridin-8-yl)amino)-[1,1′-biphenyl]-3-yl)amino)-1,7-naphthyridin-3-yl)methyl)pyrrolidine-3-carboxylic acid] | ≥ 8.00

Next, values leading:

Row | pIC50 | Structure (SMILES)
10 | ≥ 8.00 | Cc1c(NC(=O)c2nc3c(n2C)CCN(C)C3)cccc1-c1cccc(Nc2nccc3cc(CN4CC[C@@H](C(=O)O)C4)cnc23)c1C [Example 46, (R)-1-((8-(3′-(1,5-dimethyl-4,5,6,7-tetrahydro-1H-imidazo[4,5-c]pyridine-2-carboxamido)-2,2′-dimethylbiphenyl-3-ylamino)-1,7-naphthyridin-3-yl)methyl)pyrrolidine-3-carboxylic acid]
11 | ≥ 8.00 | Cc1c(Nc2nccc3cc(CN4CC[C@](C)(O)C4)cnc23)cccc1-c1cccc(NC(=O)c2nc3c(n2C)CCN(C2CCC(C(=O)O)CC2)C3)c1Cl (stereo partly drawn) [Example 58, (S)-4-(2-(2-chloro-3′-(3-((3-hydroxy-3-methylpyrrolidin-1-yl)methyl)-1,7-naphthyridin-8-ylamino)-2′-methylbiphenyl-3-ylcarbamoyl)-1-methyl-6,7-dihydro-1H-imidazo[4,5-c]pyridin-5(4H)-yl)cyclohexanecarboxylic acid]
12 | ≥ 8.00 | Cc1c(NC(=O)c2cc(CN3CC[C@@H](O)C3)cn(C)c2=O)cccc1-c1cccc(Nc2nccc3cc(CN4CC[C@@H](C(=O)O)C4)cnc23)c1C [Example 28, (R)-1-((8-(3′-(5-(((R)-3-hydroxypyrrolidin-1-yl)methyl)-1-methyl-2-oxo-1,2-dihydropyridine-3-carboxamido)-2,2′-dimethylbiphenyl-3-ylamino)-1,7-naphthyridin-3-yl)methyl)pyrrolidine-3-carboxylic acid]
13 | ≥ 8.00 | Cc1c(NC(=O)c2nc3c(n2C)CCN(CC[C@H]2CC[C@H](C(=O)O)CC2)C3)cccc1-c1cccc(Nc2nccc3cc(CN4CC[C@@H](O)C4)cnc23)c1Cl [Example 66, trans 4-(2-(2-(2′-chloro-3′-(3-(((R)-3-hydroxypyrrolidin-1-yl)methyl)-1,7-naphthyridin-8-ylamino)-2-methylbiphenyl-3-ylcarbamoyl)-1-methyl-6,7-dihydro-1H-imidazo[4,5-c]pyridin-5(4H)-yl)ethyl)cyclohexanecarboxylic acid]
14 | ≥ 8.00 | Cc1c(Nc2ncnc3cc(CN4CC[C@@H](O)C4)cnc23)cccc1-c1cccc(NC(=O)c2nc3c(n2C)CCN(C2CCC(C)(C(=O)O)CC2)C3)c1Cl (single isomer, unassigned) [Example 68-peak1]
15 | ≥ 8.00 | Cc1c(Nc2nccc3cc(CN[C@H](C)CO)cnc23)cccc1-c1cccc(NC(=O)c2nc3c(n2C)CCN(CC[C@H]2CC[C@H](C(=O)O)CC2)C3)c1Cl [Example 59, trans 4-(2-(2-(2-chloro-3′-(3-(((R)-1-hydroxypropan-2-ylamino)methyl)-1,7-naphthyridin-8-ylamino)-2′-methylbiphenyl-3-ylcarbamoyl)-1-methyl-6,7-dihydro-1H-imidazo[4,5-c]pyridin-5(4H)-yl)ethyl)cyclohexanecarboxylic acid]
16 | ≥ 8.00 | O=C(O)[C@@H]1CCN(Cc2cnc3c(Nc4cccc(-c5cccc(Nc6nccc7cc(CN8CC[C@H](O)C8)cnc67)c5Cl)c4Cl)nccc3c2)C1 [Example 82, (R)-1-((8-((2,2′-dichloro-3′-((3-(((S)-3-hydroxypyrrolidin-1-yl)methyl)-1,7-naphthyridin-8-yl)amino)-[1,1′-biphenyl]-3-yl)amino)-1,7-naphthyridin-3-yl)methyl)pyrrolidine-3-carboxylic acid]
